In US20220169632A1, “METHODS AND MATERIALS FOR INCREASING OR MAINTAINING NICOTINAMIDE MONONUCLEOTIDE ADENYLYL TRANSFERASE-2 (NMNAT2) POLYPEPTIDE LEVELS” (University of Pittsburgh - Of the Commonwealth System of …, priority 2019, published 2022):

Tested on: NMNAT2
Assay: NMNAT2-Hibit nano-luciferase activity in stably transfected U87MG cells, various concentrations, 24 hours
Assay type: cell-based
Details: U87MG cells stably transfected with NMNAT2-Hibit luc plasmid
Description: Selected compounds were tested in vitro. U87MG cells were stably transfected with NMNAT2-Hibit luc plasmid. Cells were treated with a test compound at various concentrations for 24 hours. Cells were then collected and assayed for nano-luciferase activity.

Structure (SMILES) | E: compound efficacy for NMNAT2 activation (concentration giving >25% increase in NMNAT2 luciferase activity)
Cc1ccccc1CNC(=O)c1ccc2c(c1)c(C)c(C)n2Cc1cccc(F)c1 [BC20113] | ++ (“++” >25% increase in NMNAT2 luciferase activity at >1 μM ≤25 μM.)
Cc1cccc(CNC(=O)c2ccc3c(c2)c(C)c(C)n3Cc2cccc(F)c2)c1 [BC20114] | ++ (“++” >25% increase in NMNAT2 luciferase activity at >1 μM ≤25 μM.)
COc1ccccc1CNC(=O)c1ccc2c(c1)c(C)c(C)n2Cc1cccc(F)c1 [BC20115] | ++ (“++” >25% increase in NMNAT2 luciferase activity at >1 μM ≤25 μM.)
COc1cccc(CNC(=O)c2ccc3c(c2)c(C)c(C)n3Cc2cccc(F)c2)c1 [BC20116] | ++ (“++” >25% increase in NMNAT2 luciferase activity at >1 μM ≤25 μM.)
Cc1c(C)n(Cc2cccc(F)c2)c2ccc(C(=O)N3CCN(C(=O)c4ccco4)CC3)cc12 [BC20117] | ++ (“++” >25% increase in NMNAT2 luciferase activity at >1 μM ≤25 μM.)
Cc1c(C)n(Cc2cccc(F)c2)c2ccc(C(=O)NC(C)Cc3ccco3)cc12 (stereo not drawn) [BC20118] | ++ (“++” >25% increase in NMNAT2 luciferase activity at >1 μM ≤25 μM.)
Cc1c(C)n(Cc2cccc(F)c2)c2ccc(C(=O)NCc3ccncc3)cc12 [BC20119] | +++ (“+++” >25% increase in NMNAT2 luciferase activity at ≤1 μM.)
CCCCN(CC)Cc1ccc(CNC(=O)c2ccc3c(c2)c(C)c(C)n3Cc2cccc(F)c2)o1 [BC20120] | +++ (“+++” >25% increase in NMNAT2 luciferase activity at ≤1 μM.)
O=C(CCCc1cn(Cc2ccccc2F)c2ccccc12)NCc1ccco1 [BC20121] | ++ (“++” >25% increase in NMNAT2 luciferase activity at >1 μM ≤25 μM.)
Cc1ccc(CNC(=O)CCCc2cn(Cc3ccccc3F)c3ccccc23)o1 [BC20122] | ++ (“++” >25% increase in NMNAT2 luciferase activity at >1 μM ≤25 μM.)
O=C(CCCc1cn(Cc2ccccc2F)c2ccccc12)NCC1CCCO1 (stereo not drawn) [BC20123] | ++ (“++” >25% increase in NMNAT2 luciferase activity at >1 μM ≤25 μM.)
O=C(CCCc1cn(Cc2ccccc2F)c2ccccc12)NCc1cccc(F)c1 [BC20124] | ++ (“++” >25% increase in NMNAT2 luciferase activity at >1 μM ≤25 μM.)
Cc1ccccc1CNC(=O)CCCc1cn(Cc2ccccc2F)c2ccccc12 [BC20125] | ++ (“++” >25% increase in NMNAT2 luciferase activity at >1 μM ≤25 μM.)
Cc1cccc(CNC(=O)CCCc2cn(Cc3ccccc3F)c3ccccc23)c1 [BC20126] | ++ (“++” >25% increase in NMNAT2 luciferase activity at >1 μM ≤25 μM.)
COc1ccccc1CNC(=O)CCCc1cn(Cc2ccccc2F)c2ccccc12 [BC20127] | ++ (“++” >25% increase in NMNAT2 luciferase activity at >1 μM ≤25 μM.)
COc1cccc(CNC(=O)CCCc2cn(Cc3ccccc3F)c3ccccc23)c1 [BC20128] | ++ (“++” >25% increase in NMNAT2 luciferase activity at >1 μM ≤25 μM.)
O=C(CCCc1cn(Cc2ccccc2F)c2ccccc12)N1CCN(C(=O)c2ccco2)CC1 [BC20129] | ++ (“++” >25% increase in NMNAT2 luciferase activity at >1 μM ≤25 μM.)
CC(Cc1ccco1)NC(=O)CCCc1cn(Cc2ccccc2F)c2ccccc12 (stereo not drawn) [BC20130] | ++ (“++” >25% increase in NMNAT2 luciferase activity at >1 μM ≤25 μM.)
O=C(CCCc1cn(Cc2ccccc2F)c2ccccc12)NCCc1ccccc1 [BC20131] | ++ (“++” >25% increase in NMNAT2 luciferase activity at >1 μM ≤25 μM.)
O=C(CCCc1cn(Cc2ccccc2F)c2ccccc12)NCc1cccnc1 [BC20132] | ++ (“++” >25% increase in NMNAT2 luciferase activity at >1 μM ≤25 μM.)
O=C(CCCc1cn(Cc2ccccc2F)c2ccccc12)NCc1ccncc1 [BC20133] | ++ (“++” >25% increase in NMNAT2 luciferase activity at >1 μM ≤25 μM.)
Cc1cccc(NC(=O)CCCc2cn(Cc3ccccc3F)c3ccccc23)c1C [BC20134] | ++ (“++” >25% increase in NMNAT2 luciferase activity at >1 μM ≤25 μM.)
O=C(CCCc1cn(Cc2cccc(F)c2)c2ccccc12)NCc1ccco1 [BC20135] | ++ (“++” >25% increase in NMNAT2 luciferase activity at >1 μM ≤25 μM.)
Cc1ccc(CNC(=O)CCCc2cn(Cc3cccc(F)c3)c3ccccc23)o1 [BC20136] | ++ (“++” >25% increase in NMNAT2 luciferase activity at >1 μM ≤25 μM.)

Structure (SMILES) | E: compound efficacy for NMNAT2 activation (concentration giving >25% increase in NMNAT2 luciferase activity)
O=C(CCCc1cn(Cc2cccc(F)c2)c2ccccc12)NCC1CCCO1 (stereo not drawn) [BC20137] | ++ (“++” >25% increase in NMNAT2 luciferase activity at >1 μM ≤25 μM.)
O=C(CCCc1cn(Cc2cccc(F)c2)c2ccccc12)NCc1ccccc1F [BC20138] | ++ (“++” >25% increase in NMNAT2 luciferase activity at >1 μM ≤25 μM.)
O=C(CCCc1cn(Cc2cccc(F)c2)c2ccccc12)NCc1cccc(F)c1 [BC20139] | ++ (“++” >25% increase in NMNAT2 luciferase activity at >1 μM ≤25 μM.)
Cc1ccccc1CNC(=O)CCCc1cn(Cc2cccc(F)c2)c2ccccc12 [BC20140] | + (“+” >25% increase in NMNAT2 luciferase activity at >25 μM.)
Cc1cccc(CNC(=O)CCCc2cn(Cc3cccc(F)c3)c3ccccc23)c1 [BC20141] | + (“+” >25% increase in NMNAT2 luciferase activity at >25 μM.)
COc1ccccc1CNC(=O)CCCc1cn(Cc2cccc(F)c2)c2ccccc12 [BC20142] | ++ (“++” >25% increase in NMNAT2 luciferase activity at >1 μM ≤25 μM.)
COc1cccc(CNC(=O)CCCc2cn(Cc3cccc(F)c3)c3ccccc23)c1 [BC20143] | ++ (“++” >25% increase in NMNAT2 luciferase activity at >1 μM ≤25 μM.)
O=C(CCCc1cn(Cc2cccc(F)c2)c2ccccc12)N1CCN(C(=O)c2ccco2)CC1 [BC20144] | ++ (“++” >25% increase in NMNAT2 luciferase activity at >1 μM ≤25 μM.)
CC(Cc1ccco1)NC(=O)CCCc1cn(Cc2cccc(F)c2)c2ccccc12 (stereo not drawn) [BC20145] | ++ (“++” >25% increase in NMNAT2 luciferase activity at >1 μM ≤25 μM.)
O=C(CCCc1cn(Cc2cccc(F)c2)c2ccccc12)NCCc1ccccc1 [BC20146] | ++ (“++” >25% increase in NMNAT2 luciferase activity at >1 μM ≤25 μM.)
O=C(CCCc1cn(Cc2cccc(F)c2)c2ccccc12)NCc1cccnc1 [BC20147] | ++ (“++” >25% increase in NMNAT2 luciferase activity at >1 μM ≤25 μM.)
O=C(CCCc1cn(Cc2cccc(F)c2)c2ccccc12)NCc1ccncc1 [BC20148] | ++ (“++” >25% increase in NMNAT2 luciferase activity at >1 μM ≤25 μM.)
Cc1cccc(NC(=O)CCCc2cn(Cc3cccc(F)c3)c3ccccc23)c1C [BC20149] | ++ (“++” >25% increase in NMNAT2 luciferase activity at >1 μM ≤25 μM.)
Cc1ccc(CNC(=O)CCCc2cn(Cc3ccccc3C)c3ccccc23)o1 [BC20150] | ++ (“++” >25% increase in NMNAT2 luciferase activity at >1 μM ≤25 μM.)
Cc1ccccc1Cn1cc(CCCC(=O)NCc2ccccc2F)c2ccccc21 [BC20151] | ++ (“++” >25% increase in NMNAT2 luciferase activity at >1 μM ≤25 μM.)
Cc1ccccc1Cn1cc(CCCC(=O)NCc2cccc(F)c2)c2ccccc21 [BC20152] | ++ (“++” >25% increase in NMNAT2 luciferase activity at >1 μM ≤25 μM.)
Cc1ccccc1CNC(=O)CCCc1cn(Cc2ccccc2C)c2ccccc12 [BC20153] | ++ (“++” >25% increase in NMNAT2 luciferase activity at >1 μM ≤25 μM.)
Cc1cccc(CNC(=O)CCCc2cn(Cc3ccccc3C)c3ccccc23)c1 [BC20154] | + (“+” >25% increase in NMNAT2 luciferase activity at >25 μM.)
COc1ccccc1CNC(=O)CCCc1cn(Cc2ccccc2C)c2ccccc12 [BC20155] | ++ (“++” >25% increase in NMNAT2 luciferase activity at >1 μM ≤25 μM.)
COc1cccc(CNC(=O)CCCc2cn(Cc3ccccc3C)c3ccccc23)c1 [BC20156] | ++ (“++” >25% increase in NMNAT2 luciferase activity at >1 μM ≤25 μM.)
Cc1ccccc1Cn1cc(CCCC(=O)N(CCCN2CCOCC2)Cc2ccco2)c2ccccc21 [BC20157] | +++ (“+++” >25% increase in NMNAT2 luciferase activity at ≤1 μM.)
Cc1ccccc1Cn1cc(CCCC(=O)N2CCN(C(=O)c3ccco3)CC2)c2ccccc21 [BC20158] | ++ (“++” >25% increase in NMNAT2 luciferase activity at >1 μM ≤25 μM.)
Cc1ccccc1Cn1cc(CCCC(=O)NC(C)Cc2ccco2)c2ccccc21 (stereo not drawn) [BC20159] | ++ (“++” >25% increase in NMNAT2 luciferase activity at >1 μM ≤25 μM.)
Cc1ccccc1Cn1cc(CCCC(=O)NCc2ccncc2)c2ccccc21 [BC20160] | ++ (“++” >25% increase in NMNAT2 luciferase activity at >1 μM ≤25 μM.)
